Measurements published in patent US20260250312A1, “ANTIBACTERIAL COMPOUNDS ELIMINATING DORMANT BACTERIAL CELLS” (UNIVERSITÉ D'AIX-MARSEILLE, priority 2022, published 2026).
≈ marks a conversion by molar mass, not a printed value. Where “and” joins values, the source holds several entries; their conditions need not be identical. Equal values may be shown once. Read-outs that look alike come from different tables or passages of the source. Marks after values point to notes of the source that are not given here.

Key:
[1] = tested on: Escherichia coli (E. coli) persister cells; test: Anti-persister activity test, persister cells; format: cell-based; conditions: for anti-persister activity (in words): E. coli persister cells, Table 8 conditions; for Persister cell survival rate 96 h: concentration used 250 μM; for viability at 125 µM: 4 h, read-out: Persister cell survival rate 96 h, concentration used 125 μM, 4 hours treatment
Description: (§1) Anti-persister activity test: Escherichia coli (E. coli) persister cells were generated and isolated as described by MARQUES, C. N. H. et al. (Applied and Environmental Microbiology 2014, Vol. 80, No. 22, pp. 6976-6991). E. coli persister cells were compared to E. coli non-persister cells. 1 mL persister or non-persister bacteria culture was added in a 1.5 mL microtube with each of the compounds to be tested or ciprofloxacin as a […], and incubated at 37° C. with 160 rpm shaking for 4 hours. After 4 hours treatment with the compounds, the microtubes were centrifuged at 3,500g for 5 minutes and the pellets were resuspended in 1 mL of fresh drug free RM broth (10 g/L M9 salt, 2% casamino acids, 1 mM MgCl2, 1% glycerol). Resuspended bacteria were then plated over LB agar plates and incubated at 37° C. Bacterial colonies were enumerated after 24, 48 and 96 hours to estimate the survival rate.

[2] = tested on: E. coli non-persister cells; test: Anti-persister activity test, non-persister cells; format: cell-based, Escherichia coli; conditions: for Non-persister cell survival rate 96 h: concentration used 250 μM; for activity on non-persister cells (in words): E. coli non-persister cells, Table 8 conditions; for viability at 125 µM: 4 h, read-out: Non-persister cell survival rate 96 h, concentration used 125 μM, 4 hours treatment
Description: as §1

[3] = tested on: Enterococcus faecalis (ATCC29212); test: Microdilution MIC assay (CLSI-based), E. faecalis; format: cell-based; conditions: 20 hours incubation at 35-37° C., MHB; for MIC: Enterococcus faecalis, ATCC29212, 20 h, read-out: Minimum inhibitory concentration E. faecalis ATCC29212
Outline: (§2)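 Broth microdilution per modified CLSI guidelines in Mueller Hinton broth, 200 μL, inoculum ca. 5×10^5 CFU/mL; compounds tested as salts, twofold dilutions from 0.2 mg/mL, in triplicate. MIC determined from OD at 620 nm after incubation.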

CHO-K1 cells = test: WST1 cytotoxicity test; format: cell-based, Chinese hamster
Outline: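 CHO-K1 cells pre-cultured 24 h, then exposed 24 h at 37 °C to increasing compound concentrations. Viability read as WST-1 formazan absorbance at 450 nm after 20 min; dose-response fitted by nonlinear regression.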

[4] = tested on: Escherichia coli (ATCC28922); test: Microdilution MIC assay (CLSI-based), E. coli; format: cell-based; conditions: 20 hours incubation at 35-37° C., MHB; for MIC: Escherichia coli, ATCC28922, 20 h, read-out: Minimum inhibitory concentration E. coli ATCC28922
Outline: as §2

[5] = tested on: Pseudomonas aeruginosa (ATCC27853); test: Microdilution MIC assay (CLSI-based), P. aeruginosa; format: cell-based; conditions: 20 hours incubation at 35-37° C., MHB; for MIC: Pseudomonas aeruginosa, ATCC27853, 20 h, read-out: Minimum inhibitory concentration P. aeruginosa ATCC27853
Outline: as §2

[6] = tested on: Staphylococcus aureus (ATCC25923); test: Microdilution MIC assay (CLSI-based), S. aureus; format: cell-based; conditions: 20 hours incubation at 35-37° C., MHB; for MIC: Staphylococcus aureus, ATCC25923, 20 h, read-out: Minimum inhibitory concentration S. aureus ATCC25923
Outline: as §2

[7] = Cricetulus griseus, CHO-K1, WST1, as printed in Table 8, read-out: Toxicity IC50 CHO
[8] = Cricetulus griseus, CHO-K1, 24 h, WST1, 24 hours at 37° C., read-out: IC50 CHO

For `COC(=O)[C@H](NC(=O)CC[C@@H](C)[C@H]1CCC2C3C(CC[C@@]21C)[C@@]1(C)CC[C@H](NCCCNCCCN)C[C@H]1C[C@H]3O)C(C)C` (stereo partly drawn) [Compound S019, methyl ((4R)-4-((3S,5S,7R,10S,13R,17R)-3-((3-((3-aminopropyl)amino)propyl)amino)-7-hydroxy-10,13-dimethylhexadecahydro-1H-cyclopenta[a]phenanthren-17-yl)pentanoyl)-D-valinate], which “anti-persister activity (in words)” value [1] is on record?
The value was “very potent anti-persister activity”.

What about the “Persister cell survival rate 96 h” value ([1]; 4 hours treatment) of the same compound?
Its value is 0.0%.

What about the “Non-persister cell survival rate 96 h” value ([2]; 4 hours treatment) of the same compound?
Its value is 4.0%.

And the “Minimum inhibitory concentration E. faecalis ATCC29212” value [3]?
Its value is 25* μM and 16* μg/mL.

What about the IC50 (CHO-K1 cells; [7]) of the same compound?
Its IC50 is 97.1 µM.

What about the “IC50 CHO” value (CHO-K1 cells; WST1, 24 hours at 37° C.) of the same compound?
The value was 60.09 µg/mL (≈ 97.1 µM).

And the “Minimum inhibitory concentration E. coli ATCC28922” value [4]?
The value was 12.5* μM and 8* μg/mL.

And the “Minimum inhibitory concentration P. aeruginosa ATCC27853” value [5]?
Its value is 12.5* μM and 8* μg/mL.

And the “Minimum inhibitory concentration S. aureus ATCC25923” value [6]?
Its value is 6.25* μM and 4* μg/mL.

What does the source list for `CC[C@H](C)[C@H](NC(=O)CC[C@@H](C)[C@H]1CC[C@H]2[C@@H]3[C@H](O)C[C@@H]4C[C@@H](NCCCNCCNCCCN)CC[C@]4(C)[C@H]3CC[C@]12C)C(=O)OC` [Compound S041, methyl (2S,3S)-2-((4R)-4-((3S,5S,7R,10S,13R,17R)-3-((3-((2-((3-aminopropyl)amino)ethyl)amino)propyl)amino)-7-hydroxy-10,13-dimethylhexadecahydro-1H-cyclopenta[a]phenanthren-17-yl)pentanamido)-3-methylpentanoate]?
anti-persister activity (in words) [1]: not as good on persister cells; viability at 125 µM ([1]; Escherichia coli): 0.1%; activity on non-persister cells (in words) [2]: good activity on non-persister cells; viability at 125 µM ([2]; Escherichia coli): 0%; MIC [3]: 12.5 µM and 8 µg/mL; IC50 (CHO-K1 cells; [8]): 9.8 µM and 6.63 µg/mL; IC50 (CHO-K1 cells; [7]): 9.8 µM; MIC [4]: 12.5 µM and 8 µg/mL; MIC [5]: 12.5 µM and 8 µg/mL; MIC [6]: 12.5 µM and 8 µg/mL

For `COC(=O)[C@H](NC(=O)CC[C@@H](C)[C@H]1CCC2C3C(CC[C@@]21C)[C@@]1(C)CC[C@H](NCCCNCCCN)C[C@H]1C[C@H]3O)C(C)C` (stereo partly drawn) [Compound S017, methyl ((4R)-4-((3S,5S,7R,10S,13R,17R)-3-((3-((3-aminopropyl)amino)propyl)amino)-7-hydroxy-10,13-dimethylhexadecahydro-1H-cyclopenta[a]phenanthren-17-yl)pentanoyl)-D-valinate], which “anti-persister activity (in words)” value [1] is on record?
Its value is “not as good on persister cells”.

And the “Persister cell survival rate 96 h” value ([1]; 4 hours treatment)?
Its value is 0.6%.

What about the “activity on non-persister cells (in words)” value [2] of the same compound?
Its value is “good activity on non-persister cells”.

What about the “Non-persister cell survival rate 96 h” value ([2]; 4 hours treatment) of the same compound?
The value was 0.0%.

And the “Minimum inhibitory concentration E. faecalis ATCC29212” value [3]?
Its value is 25* μM and 16* μg/mL.

And the “IC50 CHO” value (CHO-K1 cells; WST1, 24 hours at 37° C.)?
The value was 33.23 µg/mL (≈ 53.7 µM).

What about the IC50 (CHO-K1 cells; WST1, 24 hours at 37° C., read-out: IC50 CHO) of the same compound?
The IC50 was 53.7 µM.

And the IC50 (CHO-K1 cells; WST1, Table 8, read-out: Toxicity IC50 CHO)?
The IC50 was 53.7 µM.

What about the “Minimum inhibitory concentration E. coli ATCC28922” value [4] of the same compound?
Its value is 12.5* μM and 8* μg/mL.

What about the “Minimum inhibitory concentration P. aeruginosa ATCC27853” value [5] of the same compound?
Its value is 50* μM and 32* μg/mL.

What about the “Minimum inhibitory concentration S. aureus ATCC25923” value [6] of the same compound?
The value was 12.5* μM and 8* μg/mL.

`COC(=O)[C@H]1CCCN1C(=O)CC[C@@H](C)[C@H]1CCC2C3C(CC[C@@]21C)[C@@]1(C)CC[C@H](NCCCNCCNCCCN)C[C@H]1C[C@H]3O` (stereo partly drawn) [Compound S046, methyl ((4R)-4-((3S,5S,7R,10S,13R,17R)-3-((3-((2-((3-aminopropyl)amino)ethyl)amino)propyl)amino)-7-hydroxy-10,13-dimethylhexadecahydro-1H-cyclopenta[a]phenanthren-17-yl)pentanoyl)-D-prolinate] was tested. Which “anti-persister activity (in words)” value [1] did it give?
Its value is “very potent anti-persister activity”.

What about the viability at 125 µM ([1]; Escherichia coli) of the same compound?
The viability at 125 µM was 0%.

And the viability at 125 µM ([2]; Escherichia coli)?
Its viability at 125 µM is 0.3%.

And the MIC [3]?
The MIC was 6.25 µM and 4 µg/mL.

And the IC50 (CHO-K1 cells; [8])?
Its IC50 is 9.53 µM and 6.29 µg/mL.

What about the IC50 (CHO-K1 cells; [7]) of the same compound?
The IC50 was 9.53 µM.

What about the MIC [4] of the same compound?
Its MIC is 12.5 µM and 8 µg/mL.

And the MIC [5]?
Its MIC is 12.5 µM and 8 µg/mL.

And the MIC [6]?
Its MIC is 12.5 µM and 8 µg/mL.

Which viability at 200 µM ([1]; Escherichia coli, concentration used 200 μM, 4 hours treatment, read-out: Persister cell survival rate 96 h) does the source give for `O=C(O)c1cn(C2CC2)c2cc(N3CCNCC3)c(F)cc2c1=O` [Ciprofloxacin, ciprofloxacin, reference compound] here?
Its viability at 200 µM is 5.6%.

And the viability at 200 µM ([2]; Escherichia coli, concentration used 200 μM, 4 hours treatment, read-out: Non-persister cell survival rate 96 h)?
The viability at 200 µM was 0%.
